# Target: T1, 11β-HSD1 (Homo sapiens, UniProt P28845)
# T1 construct: detecting cortisol generated from cortisterone by human liver microsomes; from tissue; host or cells: human liver microsomes
# Assay: In vitro inhibition of 11β-HSD1, HTRF detection of cortisol generated from cortisone by human liver microsomes
# Type: biochemical
# Details: 11β-HSD IC50 (nM), 1 hour at 37° C., pH 6.0, NADPH 200 μM, cortisone 80 nM, inhibition relative to carbenoxolone signal
# Experimental: Cortisol generated in the reaction is then detected with a competitive immunoassay, involving two HTRF conjugates: cortisol linked to XL665 and anti-cortisol antibody labeled with Europium cryptate. The incubation period for detection reaction was typically 2 hours. […] The ratio of the two emission signals is then calculated (Em665*10000/Em615). […] Each assay also contained a calibration curve with cortisol to transform the fluorescent data into cortisol concentrations. Percent inhibition of each compound was determined relative to the carbenoxolone signal and IC50 curves were generated.
# T1 sequence (P28845 whole entry): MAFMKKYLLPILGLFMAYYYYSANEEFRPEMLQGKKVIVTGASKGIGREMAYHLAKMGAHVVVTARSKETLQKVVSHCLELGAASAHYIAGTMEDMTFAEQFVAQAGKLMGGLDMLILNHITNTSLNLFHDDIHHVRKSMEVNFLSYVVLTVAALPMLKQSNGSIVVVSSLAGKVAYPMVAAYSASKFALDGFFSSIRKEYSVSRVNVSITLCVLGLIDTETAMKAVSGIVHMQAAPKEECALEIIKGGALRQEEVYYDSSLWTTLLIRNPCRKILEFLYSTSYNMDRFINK
row,Compound,IC50 [nM]
1,"C[C@H]1[C@H]2Cc3ccccc3[C@]1(C)CCN2C(=O)c1ccc2nc[nH]c2c1 (racemic) [Example 77, (3H-Benzoimidazol-5-yl)-(6,11-dimethyl-1,2,5,6-tetrahydro-4H-2,6-methano-benzo[d]azocin-3-yl)-methanone]",144
2,"CC1(C)[C@H]2Cc3ccccc3[C@]1(C)CCN2C(=O)c1ccc2nc[nH]c2c1 (racemic) [Example 82, (3H-Benzoimidazol-5-yl)-[(2R,6S)-6,11,11-trimethyl-1,2,5,6-tetrahydro-4H-2,6-methano-benzo[d]azocin-3-yl]-methanone]",56
3,"CC[C@@H]1[C@H]2Cc3ccc(O)cc3[C@]1(CC)CCN2C(=O)c1ccc2nc[nH]c2c1 (racemic) [Example 85, (3H-Benzoimidazol-5-yl)-(6,11-diethyl-8-hydroxy-1,2,5,6-tetrahydro-4H-2,6-methano-benzo[d]azocin-3-yl)-methanone]",89
4,"CC[C@H]1[C@H]2Cc3ccc(O)cc3[C@]1(CC)CCN2C(=O)c1ccc2nc[nH]c2c1 (racemic) [Example 86, (3H-Benzoimidazol-5-yl)-(6,11-diethyl-8-hydroxy-1,2,5,6-tetrahydro-4H-2,6-methano-benzo[d]azocin-3-yl)-methanone]",2400
5,"CC[C@]12CCN(C(=O)c3ccc4nc[nH]c4c3)[C@H](Cc3ccc(O)cc31)[C@@H]2C (racemic) [Example 87, (3H-Benzoimidazol-5-yl)-(6-ethyl-8-hydroxy-11-methyl-1,2,5,6-tetrahydro-4H-2,6-methano-benzo[d]azocin-3-yl)-methanone]",622
6,"CC[C@]12CCN(C(=O)c3ccc4nc[nH]c4c3)[C@H](Cc3ccc(O)cc31)[C@H]2C (racemic) [Example 200, (3H-Benzoimidazol-5-yl)-(6-ethyl-8-hydroxy-11-methyl-1,2,5,6-tetrahydro-4H-2,6-methano-benzo[d]azocin-3-yl)-methanone]",117
7,"C[C@@H]1C[C@]2(C)C[C@@H](Cc3ccccc32)N1C(=O)c1ccc2nc[nH]c2c1 (racemic) [Example 253, (3H-Benzoimidazol-5-yl)-(4,6-dimethyl 1,2,5,6-tetrahydro-4H-2,6-methano-benzo[d]azocin-3-yl)-methanone]",78
8,"C[C@@H]1CN(C(=O)c2ccc3nc[nH]c3c2)[C@@H]2Cc3ccccc3[C@@]1(C)C2 (racemic) [Example 294, (3H-Benzoimidazol-5-yl)-(5,6-dimethyl-1,2,5,6-tetrahydro-4H-2,6-methano-benzo[d]azocin-3-yl)-methanone]",146
9,"COc1cc2c(cc1C)C[C@@H]1N(C(=O)c3ccc4nc[nH]c4c3)CC[C@@]2(C)C1(C)C (stereo in doubt) [Example 61, (3H-Benzoimidazol-5-yl)-[(2S,6R)-8-methoxy-6,9,11,11-tetramethyl-1,2,5,6-tetrahydro-4H-2,6-methano-benzo[d]azocin-3-yl]-methanone]",798
10,"COc1cc2c(cc1C)C[C@H]1N(C(=O)c3ccc4nc[nH]c4c3)CC[C@]2(C)C1(C)C (stereo in doubt) [Example 62, (3H-Benzoimidazol-5-yl)-[(2R,6S)-8-methoxy-6,9,11,11-tetramethyl-1,2,5,6-tetrahydro-4H-2,6-methano-benzo[d]azocin-3-yl]-methanone]",109
11,"COc1cc2c(cc1C)[C@]1(C)CCN(C(=O)c3ccc4nc[nH]c4c3)[C@H](C2)C1(C)C (stereo in doubt) [Example 63, (3H-Benzoimidazol-5-yl)-[(2R,6S)-9-methoxy-6,8,11,11-tetramethyl-1,2,5,6-tetrahydro-4H-2,6-methano-benzo[d]azocin-3-yl]-methanone]",216
12,"COc1cc2c(cc1C)[C@@]1(C)CCN(C(=O)c3ccc4nc[nH]c4c3)[C@@H](C2)C1(C)C (stereo in doubt) [Example 64, (3H-Benzoimidazol-5-yl)-[(2S,6R)-9-methoxy-6,8,11,11-tetramethyl-1,2,5,6-tetrahydro-4H-2,6-methano-benzo[d]azocin-3-yl]-methanone]",753
13,"Cc1cc2c(cc1O)[C@]1(C)CCN(C(=O)c3ccc4nc[nH]c4c3)[C@H](C2)C1(C)C (stereo in doubt) [Example 65, (3H-Benzoimidazol-5-yl)-[(2R,6S)-8-hydroxy-6,9,11,11-tetramethyl-1,2,5,6-tetrahydro-4H-2,6-methano-benzo[d]azocin-3-yl]-methanone]",29
14,"Cc1cc2c(cc1O)[C@@]1(C)CCN(C(=O)c3ccc4nc[nH]c4c3)[C@@H](C2)C1(C)C (stereo in doubt) [Example 66, (3H-Benzoimidazol-5-yl)-[(2S,6R)-8-hydroxy-6,9,11,11-tetramethyl-1,2,5,6-tetrahydro-4H-2,6-methano-benzo[d]azocin-3-yl]-methanone]",822
15,"Cc1cc2c(cc1O)C[C@H]1N(C(=O)c3ccc4nc[nH]c4c3)CC[C@]2(C)C1(C)C (stereo in doubt) [Example 67, (3H-Benzoimidazol-5-yl)-[(2R,6S)-9-hydroxy-6,8,11,11-tetramethyl-1,2,5,6-tetrahydro-4H-2,6-methano-benzo[d]azocin-a 3-yl]-methanone]",32
16,"Cc1cc2c(cc1O)C[C@@H]1N(C(=O)c3ccc4nc[nH]c4c3)CC[C@@]2(C)C1(C)C (stereo in doubt) [Example 68, (3H-Benzoimidazol-5-yl)-[(2S,6R)-9-hydroxy-6,8,11,11-tetramethyl-1,2,5,6-tetrahydro-4H-2,6-methano-benzo[d]azocin-3-yl]-methanone]",372
17,"CC1(C)[C@H]2Cc3c(O)cccc3[C@]1(C)CCN2C(=O)c1ccccc1 [Example 1, [(2R,6S)-10-Hydroxy-6,11,11-trimethyl-1,2,5,6-tetrahydro-4H-2,6-methano-benzo[d]azocin-3-yl]-phenyl-methanone]",285
18,"CC1(C)[C@H]2Cc3c(O)cccc3[C@]1(C)CCN2C(=O)c1ccccc1Cl [Example 2, (2-Chloro-phenyl)-[(2R,6S)-10-hydroxy-6,11,11-trimethyl-1,2,5,6-tetrahydro-4H-2,6-methano-benzo[d]azocin-3-yl]-methanone]",741
19,"CC1(C)[C@H]2Cc3c(O)cccc3[C@]1(C)CCN2C(=O)c1ccc(C(N)=O)cc1 [Example 3, 4-[(2R,6S)-10-Hydroxy-6,11,11-trimethyl-1,2,5,6-tetrahydro-4H-2,6-methano-benzo[d]azocine-3-carbonyl]benzamide]",85
20,"CC1(C)[C@H]2Cc3c(O)cccc3[C@]1(C)CCN2C(=O)c1ccc2nc[nH]c2c1 [Example 4, (3H-Benzoimidazol-5-yl)-[(2R,6S)-10-hydroxy-6,11,11-trimethyl-1,2,5,6-tetrahydro-4H-2,6-methano-benzo[d]azocin-3-yl]-methanone]",56
21,"Cc1ccccc1C(=O)N1CC[C@@]2(C)c3cccc(O)c3C[C@@H]1C2(C)C [Example 5, [(2R,6S)-10-Hydroxy-6,11,11-trimethyl-1,2,5,6-tetrahydro-4H-2,6-methano-benzo[d]azocin-3-yl]-o-tolyl-methanone]",3100
22,"COc1ccccc1C(=O)N1CC[C@@]2(C)c3cccc(O)c3C[C@@H]1C2(C)C [Example 6, [(2R,6S)-10-Hydroxy-6,11,11-trimethyl-1,2,5,6-tetrahydro-4H-2,6-methano-benzo[d]azocin-3-yl)-(2-methoxy-phenyl]-methanone]",1060
23,"Cc1cccc(C(=O)N2CC[C@@]3(C)c4cccc(O)c4C[C@@H]2C3(C)C)c1 [Example 7, [(2R,6S)-10-Hydroxy-6,11,11-trimethyl-1,2,5,6-tetrahydro-4H-2,6-methano-benzo[d]azocin-3-yl]-m-tolyl-methanone]",262
24,"CC1(C)[C@H]2Cc3c(O)cccc3[C@]1(C)CCN2C(=O)c1ccccc1C#N [Example 8, 2-[(2R,6S)-10-Hydroxy-6,11,11-trimethyl-1,2,5,6-tetrahydro-4H-2,6-methano-benzo[d]azocine-3-carbonyl]-benzonitrile]",3360
25,"CC(=O)Nc1cccc(C(=O)N2CC[C@@]3(C)c4cccc(O)c4C[C@@H]2C3(C)C)c1 [Example 9, N-{3-[(2R,6S)-10-Hydroxy-6,11,11-trimethyl-1,2,5,6-tetrahydro-4H-2,6-methano-benzo[d]azocine-3-carbonyl]-phenyl}-acetamide]",1980
26,"CC1(C)[C@H]2Cc3c(O)cccc3[C@]1(C)CCN2C(=O)c1cccc(C#N)c1 [Example 10, 3-[(2R,6S)-10-Hydroxy-6,11,11-trimethyl-1,2,5,6-tetrahydro-4H-2,6-methano-benzo[d]azocine-3-carbonyl]-benzonitrile]",1780
27,"COc1cccc(C(=O)N2CC[C@@]3(C)c4cccc(O)c4C[C@@H]2C3(C)C)c1 [Example 11, [(2R,6S)-10-Hydroxy-6,11,11-trimethyl-1,2,5,6-tetrahydro-4H-2,6-methano-benzo[d]azocin-3-yl]-(3-methoxy-phenyl)-methanone]",530
28,"Cc1ccc(C(=O)N2CC[C@@]3(C)c4cccc(O)c4C[C@@H]2C3(C)C)cc1 [Example 12, [(2R,6S)-10-Hydroxy-6,11,11-trimethyl-1,2,5,6-tetrahydro-4H-2,6-methano-benzo[d]azocin-3-yl]-p-tolyl-methanone]",792
29,CC1(C)[C@H]2Cc3c(O)cccc3[C@]1(C)CCN2C(=O)c1ccc(C#N)cc1 [Example 13],1610

# Same assay, conditions: 1 hour at 37° C., pH 6.0, NADPH 200 μM, cortisone 80 nM, inhibition relative to carbenoxolone signal, read-out: 11β-HSD IC50
row,Compound,IC50 [nM]
1,"O=C(c1ccc2nc[nH]c2c1)N1CC[C@@H]2C[C@H]1Cc1cccnc12 (racemic) [Example 325, (3H-Benzoimidazol-5-yl)-(5,8,9,10-tetrahydro-6H-6,10-methano-pyrido[3,2-d]azocin-7-yl)-methanone]",771

# Source: patent publication US8859580B2 (Boehringer Ingelheim International GmbH, priority 2007, dated 2014)
